{"source": "patent US11738006B2", "about": "“Pharmaceutical composition containing antifungal agent as active ingredient” (priority 2019, dated 2023)", "experiment": "Test on solubility to polyethylene glycol (visual check for insoluble luliconazole)", "format": "physicochemical", "method": "Examined was how luliconazole is dissolved by polyethylene glycol 200 having an average molecular weight of 190 to 210, polyethylene glycol 300 having an average molecular weight of 285 to 315, polyethylene glycol 400 having an average molecular weight of 380 to 420, and polyethylene glycol 600 having an average molecular weight of 570 to 630, each of which is represented by the formula HOCH2(CH2OCH2)nCH2OH (where n is an integer). To this end, the above polyethylene glycols (manufactured by NOF Corporation) were mixed with luliconazole according to the formulation presented in Table 1 below, and the properties of the solution (presence of insoluble matter (luliconazole)) were visually evaluated.", "data": [{"smiles": "N#C/C(=C1/SC[C@@H](c2ccc(Cl)cc2Cl)S1)n1ccnc1", "note": "[luliconazole, (R)-(−)-(E)-[4-(2,4-dichlorophenyl)-1,3-dithiolane-2-ylidene]-1-imidazolylacetonitrile]", "values": [{"measurement": "solubility for luliconazole", "setting": "in polyethylene glycol 400 compared to polyethylene glycol 200, 300 and 600", "result": "highest solubility"}, {"measurement": "solubility for luliconazole", "setting": "in polyethylene glycols 200, 300, 400, and 600", "result": "high solubility"}]}]}
